We go through five compounds from patent US20240002361A1, “COMPOSITIONS AND METHODS FOR BLOCKING NEUROPILIN RECEPTOR 1 FOR THE TREATMENT OF PAIN AND PREVENTION OF VIRAL ENTRY” (Arizona Board of Regents on Behalf of the University of …, priority 2020, published 2024).

Molecules are shown by their SMILES.

One assay relates to VSV-eGFP-SARS-CoV-2. Type of assay: cell-based.
Assay [1] has as its target T1, NRP-1/VEGF-A interaction (Homo sapiens, UniProt O14786).
T1 construct: coated with the extracellular domain of human NRP-1 (containing the a1a2 and the b1b2 regions); purchased Fisher, Hampton, NH 50-101-8343
T1 sequence (O14786 22-856 limits assumed): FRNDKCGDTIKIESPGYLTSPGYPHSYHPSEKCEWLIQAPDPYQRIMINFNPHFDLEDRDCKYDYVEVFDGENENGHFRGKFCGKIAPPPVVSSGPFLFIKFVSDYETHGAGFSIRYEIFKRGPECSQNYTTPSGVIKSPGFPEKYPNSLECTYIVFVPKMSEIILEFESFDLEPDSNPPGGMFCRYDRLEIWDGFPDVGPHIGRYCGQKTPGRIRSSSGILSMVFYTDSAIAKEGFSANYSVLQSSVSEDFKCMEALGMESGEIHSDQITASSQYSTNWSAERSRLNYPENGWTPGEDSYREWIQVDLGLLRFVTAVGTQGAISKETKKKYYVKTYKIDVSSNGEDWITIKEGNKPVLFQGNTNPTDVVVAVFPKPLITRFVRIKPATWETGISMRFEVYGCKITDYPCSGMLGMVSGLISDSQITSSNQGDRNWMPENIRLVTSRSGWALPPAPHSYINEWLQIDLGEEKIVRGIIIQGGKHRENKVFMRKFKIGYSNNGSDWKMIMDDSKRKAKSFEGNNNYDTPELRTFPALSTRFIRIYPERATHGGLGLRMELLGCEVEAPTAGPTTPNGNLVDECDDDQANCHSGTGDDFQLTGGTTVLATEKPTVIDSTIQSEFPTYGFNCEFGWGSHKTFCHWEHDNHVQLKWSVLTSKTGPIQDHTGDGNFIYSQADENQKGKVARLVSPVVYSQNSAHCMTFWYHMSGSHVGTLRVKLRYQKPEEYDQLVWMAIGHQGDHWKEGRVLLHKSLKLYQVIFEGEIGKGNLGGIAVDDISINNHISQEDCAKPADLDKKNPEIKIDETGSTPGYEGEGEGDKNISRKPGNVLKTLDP
The experiment in a line: ELISA-based NRP1-VEGF-A165 protein binding assay (single concentration). Particulars: compounds 12.5 μM (Spike S1 100 nM), biotinylated VEGF-A165 10 nM; ± standard error of the mean, n = 11. For orientation: In an ELISA, binding on a coated surface is turned into a signal by an enzyme label.

A further assay deals with pY1175 VEGFR2. The experiment in a line: In cell Western for detecting inhibition of VEGFR2 activation by VEGF-A165. The class given is cell-based, mouse. The following applies: CAD cells.
Assay [2] concerns the target T1, NRP-1/VEGF-A interaction. The experiment in a line: ELISA-based NRP1-VEGF-A165 protein binding assay (concentration-response, IC50). The following applies: 20 nM biotinylated hVEGF-A165 with 4 μg/ml heparin, n=3, read-out: Calculated IC50 values of inhibiting the NRP-1/VEGF-A interaction. The method, then: Plates (96-well, Nunc Maxisorp; Thermo Fisher Scientific, Waltham, MA, USA) were coated with human Neuropilin-1-Fc (200 ng per well, Cat #50-101-8343, Fisher, Hampton, NH) and incubated at 4° C. overnight. The following day, the plates were washed and blocked with 3% BSA in PBS to minimize non-specific adsorptive binding to the plates. EG00229 (Cat #6986, Tocris) or the indicated compounds were added at different concentrations and incubated for 30 min at room temperature prior to adding biotinylated human VEGF-A165 (Cat #BT10543-025, R&D systems) at 20 nM with 4 μg/ml of heparin. As a negative control, some wells received PBS containing 3% BSA and as a positive control only hVEGF-A165 was used. The plates were incubated at room temperature with shaking for 2 h. Next, the plates were washed with PBS 0.05% Tween to eliminate unbound protein. Bound biotinylated VEGF was detected by streptavidin-HRP (Cat #016-030-084, Jackson immunoResearch). Tetramethylbenzidine (Cat #DY999, R&D Systems, St. Louis, MO) was used as the colorimetric substrate. The optical density of each well was determined immediately, using a microplate reader (Multiskan Ascent; Thermo Fisher Scientific) set to 450 nm with a correction wavelength of 570 nm. Percentage of inhibition was calculated by the following formula: […]
where S is the optical density measured in the wells with the compounds, N is the optical density measured in the negative control wells and P is the optical density in the positive control wells. The IC50 was calculated using a non-linear regression function with GraphPad Prism Version 9. The data are presented as log (inhibitor) [M] versus normalized response-variable slope. Data are the means±S.E.M. of three independent experiments.
Finally, the ability of the compounds to interfere with the NRP-1NEGF-A interaction was evaluated using an enzyme linked immunosorbent assay (ELISA), as previously described (Moutal, et al., Pain 2021, 12(1), 243-252). Plates were coated with the extracellular domain of human NRP-1 (containing the a1a2 and the b1b2 regions) and the compounds were added to disrupt the NRP-1NEGF-A interaction. The biotinylated human VEGF-A used in the experiments described above (Moutal, et al., Pain 2021, 12(1), 243-252) was discontinued. For the instant studies, biotinylated hVEGF-A (Cat #BT10543-025, R&D systems) was used. Because of that, the known NRP-1 antagonist EG00229 and compound 4 from the above series of inhibitors (Moutal, et al., Pain 2021, 12(1), 243-252) were also tested in the instant studies.

A further assay has as its system SNI rats. The experiment in a line: Spared nerve injury (SNI)-induced mechanical allodynia, paw withdrawal threshold. Type of assay: in vivo, rats (Sprague Dawley, male). Particulars: day 21 after surgery, 2.14 mg/5 ml intrathecally, n=5. The protocol: FIG. 8 is a line graph showing antagonism of NRP-1/VEGF-A signaling using compound 4. […] SNI elicited mechanical allodynia 21 days after surgery. Paw withdrawal thresholds for SNI rats (Sprague Dawley, male) administered saline (vehicle) or NRP-1 inhibitor (2.14 mg/5 ml) intrathecally (i.t.); n=5). P values, versus control, are indicated. Data are shown as mean±s.e.m. and were analyzed by non-parametric two-way analysis of variance where time was the within subject factor and treatment was the between subject factor (post hoc: Sidak). The experiments were analyzed by an investigator blinded to the treatment. […]
The assessment of tactile allodynia (i.e., a decreased threshold for paw withdrawal after probing with normally innocuous mechanical stimuli) involved testing the withdrawal threshold of the paw in response to probing with a series of calibrated fine (von Frey) filaments. […] The withdrawal threshold was determined by sequentially increasing and decreasing the stimulus strength (the ‘up and down’ method, and the data analyzed using the nonparametric method of Dixon (as described by Chaplan and Bach, J. Neurosci. Meth. 1994, 53, 55-63) with results expressed as the mean withdrawal threshold. The withdrawal threshold is a level that is statistically significant. Typically, greater than 50% deviation from the baseline could be allodynic.

On to `NC(N)=NCCC[C@H](NC(=O)c1sccc1NS(=O)(=O)c1cccc2nsnc12)C(=O)O` [EG00229, reference compound], for which the “inhibition of VSV-eGFP-SARS-CoV-2 antiviral activity” value with VSV-eGFP-SARS-CoV-2 is recorded as “ineffective”. The compound also had a Rel % inhibition at NRP-1/VEGF-A interaction [1] of 33 ± 10%. Besides, in the assay on pY1175 VEGFR2 (compounds 12.5 μM or Spike 100 nM, 1 nM VEGF-A165, 1 hour), the “inhibition of VEGF-A stimulated increased phosphorylation of VEGFR2 (pY1175)” value is listed as “blocked”. For the same compound, the IC50 on NRP-1/VEGF-A interaction [2] was 1370 µM.
For `O=C(/C=C/c1ccc(O)c(O)c1)O[C@@H](C(=O)O)[C@@H](O)C(=O)O` [Compound 17], in the assay with VSV-eGFP-SARS-CoV-2, the “inhibition of VSV-eGFP-SARS-CoV-2 antiviral activity” value is around 15%. Besides, the Rel % inhibition at NRP-1/VEGF-A interaction [1] worked out at 12 ± 16%.
For `Cc1nc(N2CCOCC2)ncc1-c1cc(=O)[nH]c(Nc2ccccc2)n1` [Compound 4], the Rel % inhibition at NRP-1/VEGF-A interaction [1] came out at 68 ± 5%. Also, in the assay with pY1175 VEGFR2 (absence of stimulation by VEGF-A), the “inhibition of basal VEGFR2 phosphorylation” value was “showed inhibition”. Also, the “reversal of SNI-induced mechanical allodynia (paw withdrawal threshold)” value in the assay on SNI rats is recorded as “reverses spared nerve injury (SNI)-induced mechanical allodynia”. The IC50 at NRP-1/VEGF-A interaction [2] is 8.4 µM.
Regarding `COc1ccccc1Nc1nc(-c2cnc(N3CCCC3)nc2C)cc(=O)[nH]1` [Compound 5], on NRP-1/VEGF-A interaction [1], the Rel % inhibition is 42 ± 10%.
The same measure, in the same setting: with `COc1ccccc1Nc1nncc(=O)[nH]1` [Compound 7] the figure was 18 ± 19%.
